The compounds below were run against T1, human secreted PLA2 (Homo sapiens, UniProt P14555) (assay: chromogenic assay of recombinant human secreted phospholipase A2 inhibition (Assay Example 1)). Details: mean of 3-5 tests; 40° C., 30 minutes, pH 7.5, 405 nanometers; read-out: Inhibition of human secreted PLA2 IC50 ± mean deviation (3-5 tests).
T1 sequence (P14555 21-144): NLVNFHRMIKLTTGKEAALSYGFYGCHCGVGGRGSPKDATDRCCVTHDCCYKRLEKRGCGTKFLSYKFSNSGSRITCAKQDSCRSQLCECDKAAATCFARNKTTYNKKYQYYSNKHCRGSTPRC
Assay type: biochemical
Description: The assay described herein has been adapted for high volume screening using 96 well microtiter plates. A general description of this assay method is found in the article, "Analysis of Human Synovial Fluid Phospholipase A2 on Short Chain Phosphatidylcholine-Mixed Micelles: Development of a Spectrophotometric Assay Suitable for a Microtiterplate Reader", by Laure J. Reynolds, Lori L. […] Reagents, the disclosure of which is incorporated herein by reference. REACTION BUFFER CaCl2.2H20 (1.47 g/L) KCl (7.455 g/L) Bovine Serum Albumin (fatty acid free) (1 g/L) (Sigma A-7030, product of Sigma Chemical Co. St. Louis Mo., USA) TRIS HCl (3.94 g/L) pH 7.5 (adjust with NaOH) ENZYME BUFFER […] 0.2 NaCl Adjust pH to 4.5 with acetic acid DTNB […] RACEMIC DIHEPTANOYL THIO - PC […] TRITON X-100™ prepare at 6.249 mg/ml in reaction buffer to equal […]. REACTION MIXTURE A measured volume of racemic dipheptanoyl thio PC supplied in chloroform at a concentration of 100 mg/ml is taken to dryness and redissolved in 10 millimolar TRITON X-100™ nonionic detergent aqueous solution. Reaction Buffer is added to the solution, then DTNB to give the Reaction Mixture. The reaction mixture thus obtained contains 1 mM diheptanoly thio-PC substrate, 0.29 mM Triton X-100™ detergent, and 0.12 mM DTMB in a buffered aqueous solution at pH 7.5. Assay Procedure: 1. Add 0.2 ml reaction mixture to all wells; 2. Add 10 ul test compound (or solvent blank) to appropriate wells, mix 20 seconds; 3. Add 50 nanograms of sPLA2 (10 microliters) to appropriate wells; 4. Incubate plate at 40° C. for 30 minutes; […] Read absorbance of wells at 405 nanometers with an automatic plate reader. All compounds were tested in triplicate. Typically, compounds were tested at a final concentration of 5 ug/ml. […] Lack of color development at 405 nanometers evidenced inhibition. Compounds initially found to be active were reassayed to confirm their activity and, if sufficiently active, IC50 values were determined. […] In all cases, % inhibition measured at 405 nanometers generated by enzyme reactions containing inhibitors relative to the uninhibited control reactions was determined. Each sample was titrated in triplicate and result values were averaged for plotting and calculation of IC50 values. […] IC50 values were determined at least three times for each compound tested.

IC50	Compound
9.96 ± 5.61 µM	5-Methoxy-1-(phenylmethyl)-1H-indole-3-butanoic acid hydrazide [Example 66]
1.14 ± 0.44 µM	Cc1c(CC(=O)NN)c2ccc(Cl)cc2n1Cc1ccccc1 [Example 8, 6-Chloro-2-methyl-1-(phenylmethyl)-1H-indole-3-acetic acid hydrazide]
1.02 ± 0.26 µM	Cc1c(CC(=O)NN)c2ccc(Br)cc2n1Cc1ccccc1 [Example 54, 6-Bromo-2-methyl-1-(phenylmethyl)-1H-indole-3-acetic acid hydrazide]
15.2 ± 0.77 µM	COc1ccc2c(c1)c(CC(=O)NN)c(C)n2Cc1cccc([N+](=O)[O-])c1 [Example 34, 5-Methoxy-2-methyl-1-[(3-nitrophenyl)methyl]-1H-indole-3-acetic acid hydrazide]
1.54 ± 0.67 µM	COc1ccc2c(c1)c(CC(=O)NN)c(C)n2Cc1cccc(C)c1 [Example 22, 5-Methoxy-1-[(3-methylphenyl)methyl]-2-methyl-1H-indole-3-acetic acid hydrazide]
7.12 ± 4.89 µM	COc1ccc2c(c1)c(CC(=O)NN)c(C)n2Cc1cccc(N)c1 [Example 35, 1-[(3-Aminophenyl)methyl]-5-methoxy-2-methyl-1H-indole-3-acetic acid hydrazide]
46.1 ± 24.7 µM	COc1ccc2c(c1)c(CC(=O)NN)c([S+](C)[O-])n2Cc1ccccc1 (stereo not drawn) [Example 46, 5-Methoxy-2-methylsulfinyl-1-(phenylmethyl)-1H-indole-3-acetic acid hydrazide]
1.63 ± 0.74 µM	Cc1c(CC(=O)NN)c2cc(Cl)ccc2n1Cc1cccc(Cl)c1 [Example 49, 5-Chloro-[(3-chlorophenyl)methyl]-2-methyl-1H-indole-3-acetic acid hydrazide]
9.39 ± 2.3 µM	COc1ccc2c(c1)c(CC(=O)NN)c(C)n2Cc1cc(Cl)ccc1Cl [Example 20, 1-(2,5-Dichlorophenylmethyl)-5-methoxy-2-methyl-1H-indole-3-acetic acid hydrazide]
2.18 ± 0.51 µM	COc1cccc(Cn2c(C)c(CC(=O)NN)c3cc(OC)ccc32)c1 [Example 27, 5-Methoxy-1-[(3-methoxyphenyl)methyl]-2-methyl-1H-indole-3-acetic acid hydrazide]
7.08 ± 1.61 µM	CCCCCCCCCCn1c(C)c(CC(=O)NN)c2cc(OC)ccc21 [Example 14, 1-Decyl-5-methoxy-2-methyl-1H-indole-3-acetic acid hydrazide]
0.86 µM	Cc1c(CC(=O)NN)c2cc(OCCCC(=O)O)ccc2n1Cc1ccccc1 [Example 71, 4-[[3-(2-Hydrazino-2-oxoethyl)-2-methyl-1-(phenylmethyl)-1H-indol-5-yl]oxy]butanoic acid]
5.49 ± 4.29 µM	COc1ccc2c(c1)c(CC(=O)NN)cn2Cc1ccccc1-c1ccccc1 [Example 12, 1-([1,1'-Biphenyl]-2-ylmethyl)-5-methoxy-1H-indole-3-acetic acid hydrazide]
0.36 ± 0.17 µM	Cc1c(CC(=O)NN)c2cc(OCc3ccc4ccccc4n3)ccc2n1Cc1ccccc1 [Example 62, 2-Methyl-1-(phenylmethyl)-5-[(2-quinolyl)methoxy]-1H-indole-3-acetic acid hydrazide]
16.5 ± 3.58 µM	COc1ccc2c(c1)c(CC(=O)NN)c(C)n2CCCCc1ccccc1 [Example 42, 5-Methoxy-2-methyl-1-(4-phenylbutyl)-1H-indole-3-acetic acid hydrazide]
5.32 ± 1.93 µM	COc1ccc2c(c1)c(CC(=O)NN)c(C)n2C(C)c1ccccc1 (stereo not drawn) [Example 36, 5-Methoxy-2-methyl-1-(1-phenylethyl)-1H-indole-3-acetic acid hydrazide]
1.71 ± 0.24 µM	COc1ccc2c(c1)c(CC(=O)NN)c(C)n2Cc1ccccc1Cl [Example 17, 1-(2-Chlorophenylmethyl)-5-methoxy-2-methyl-1H-indole-3-acetic acid hydrazide]
> 100 µM	CCCCCCCCCCCCCCCCCCn1c(C)c(CC(=O)NN)c2cc(OC)ccc21 [Example 15, 5-Methoxy-2-methyl-1-octadecyl-1H-indole-3-acetic acid hydrazide]

From patent publication US5578634A, “1H-indole-3-acetic acid hydrazide sPLA2 inhibitors” (Eli Lilly and Company, priority 1995, dated 1996)
